ChEMBL document CHEMBL6114962, “Nucleoside antiviral agents with atypical structures and new targets” (Bioorg Med Chem Lett, 2025)

Legend:
[1] = Cytotoxicity against African green monkey Vero E6 cells assessed as reduction in cell growth; format: toxicity, cell-based; conditions: chlorocebus sabaeus
Ebolavirus = test: Antiviral activity against Ebola virus infected in Vero E6 cells assessed as virus-induced cytopathic effect incubated for 3 days by CPE assay; format: functional, organism-based; conditions: Orthoebolavirus, Vero C1008, 72 h
Vaccinia virus = test: Antiviral activity against Vaccinia virus; format: functional, organism-based; conditions: Orthopoxvirus vaccinia
[2] = Cytotoxicity against human HFF cells; format: toxicity, cell-based
Human alphaherpesvirus 3 [3] = test: Antiviral activity against Varicella zoster virus infected in human HEL cells assessed as reduction in plaque formation incubated for 72 hrs; format: functional, organism-based; conditions: Human alphaherpesvirus 3, HEL
[4] = Cytotoxicity against human HEL cells; format: toxicity, cell-based
[5] = Cytotoxicity against human HEL 299 cells; format: toxicity, cell-based
Human alphaherpesvirus 2 = test: Antiviral activity against HSV-2; format: functional, organism-based
Human alphaherpesvirus 1 = test: Antiviral activity against HSV-1; format: functional, organism-based
Human betaherpesvirus 5 = test: Antiviral activity against HCMV; format: functional, organism-based
Human alphaherpesvirus 3 [6] = test: Antiviral activity against Varicella zoster virus infected in human HEL cells assessed as reduction in plaque formation; format: functional, organism-based; conditions: Human alphaherpesvirus 3, HEL
HEL = test: Cytotoxicity against human HEL cells assessed as reduction in cell viability incubated for 24 hrs by MTT assay; format: functional
SARS-CoV = test: Antiviral activity against SARS-CoV Urbani infected in Vero E6 cells at 0.01 to 0.025 MOI assessed as inhibition of virus induced cytopathic effect; format: functional, organism-based; conditions: Severe acute respiratory syndrome-related coronavirus, Vero C1008
[7] = Cytotoxicity against African green monkey Vero E6 cells assessed as reduction in cell viability by neutral red uptake assay; format: toxicity, cell-based, Vero C1008; conditions: chlorocebus sabaeus
[8] = Cytotoxicity against African green monkey Vero cells; format: toxicity, cell-based; conditions: chlorocebus sabaeus
Human coronavirus OC43 = test: Antiviral activity against Human coronavirus OC43 infected in Vero cells assessed as reduction in viral replication pre-incubated with virus for 1 hr followed by washout and compound treatment and measured after 3 days by qRT-PCR analysis; format: functional, organism-based; conditions: Betacoronavirus 1, Vero
[9] = biological target: Replicase polyprotein 1ab (Severe acute respiratory syndrome coronavirus 2, UniProt P0DTD1); test: Inhibition of C-terminal SARS-CoV-2 nsp14 N7-methyltransferase activity incubated for 30 mins in presence of SAM by Liquid scintillation analysis
Human alphaherpesvirus 3 [10] = test: Antiviral activity against Varicella zoster virus infected in human HEL cells assessed as inhibition of plaque formation measured for 3 days; format: functional, organism-based; conditions: Human alphaherpesvirus 3, HEL, 72 h
HMEC-1 = test: Cytotoxicity against human HMEC-1 cells assessed as reduction in cell growth incubated for 24 hrs; format: functional
[11] = Cytotoxicity against dog MDCK cells assessed as reduction in cell viability incubated for 72 hrs by CCK-8 assay; format: toxicity, cell-based, Canis lupus familiaris
Influenza A virus [12] = test: Antiviral activity against Influenza virus H3N2 (A/Hong Kong/8/68) infected in dog MDCK cells assessed as reduction in virus induced cytopathic effect measured after 48 hrs by crystal violet staining based assay; format: functional, organism-based
Influenza A virus [13] = test: Antiviral activity against influenza A virus A/WSN/33 (H1N1) infected in dog MDCK cells assessed as reduction in virus induced cytopathic effect measured after 48 hrs by crystal violet staining based assay; format: functional, organism-based

SMILES: Nc1nccc2c1ncn2[C@@H]1C=C(CO)[C@@H](O)[C@H]1O
- CC50 [1]: > 100 µM
- EC50 (Ebolavirus): 30 µM

SMILES: CCCCCOCCCCCCCCCc1cc2cn([C@@H]3CC[C@H](CO)O3)c(=O)nc2o1
- EC50 (Vaccinia virus): 0.19 µM
- CC50 [2]: > 100 µM

SMILES: O=c1nc2oc(CCCCCCCCCCl)cc2cn1[C@H]1C[C@H](O)[C@@H](CO)O1
- EC50 (Human alphaherpesvirus 3 [3]): 0.012 µM
- CC50 [4]: 200 µM

SMILES: O=c1nc2oc(CCCCCCCCCF)cc2cn1[C@H]1C[C@H](O)[C@@H](CO)O1
- EC50 (Human alphaherpesvirus 3 [3]): 0.014 µM
- CC50 [4]: 200 µM

SMILES: O=c1nc2oc(CCCCCCCCCI)cc2cn1[C@H]1C[C@H](O)[C@@H](CO)O1
- EC50 (Human alphaherpesvirus 3 [3]): 0.034 µM
- CC50 [4]: > 200 µM

SMILES: O=c1nc2oc(CCCCCCCCCBr)cc2cn1[C@H]1C[C@H](O)[C@@H](CO)O1
- EC50 (Human alphaherpesvirus 3 [3]): 0.031 µM
- CC50 [4]: > 50 µM

SMILES: Nc1nc2c(ncn2C[Se]CCO)c(=O)[nH]1
- CC50 [5]: > 100 µM
- EC50 (Human alphaherpesvirus 2): 6.34 µM
- EC50 (Human alphaherpesvirus 1): 1.47 µM

SMILES: Nc1nc2c(ncn2C[Se]C(CO)CO)c(=O)[nH]1
- CC50 [5]: > 100 µM
- EC50 (Human betaherpesvirus 5): 53.1 µM

SMILES: COc1ccc(C(OC[C@H]2O[C@@H](n3cc4c(nc3=O)Nc3ccccc3O4)[C@H](O)[C@@H]2O)(c2ccccc2)c2ccc(OC)cc2)cc1
- EC50 (Human alphaherpesvirus 3 [6]): 2.7 µM
- CC50 (HEL): 9.7 µM

SMILES: COc1ccc(C(OC[C@H]2O[C@@H](n3cc4c(nc3=O)Nc3ccccc3O4)C[C@@H]2O)(c2ccccc2)c2ccc(OC)cc2)cc1
- EC50 (Human alphaherpesvirus 3 [6]): 1.5 µM
- CC50 (HEL): 12.2 µM

SMILES: COc1ccc(C(OC[C@H]2O[C@@H](n3cc4c(nc3=O)Nc3c(OCCN)cccc3O4)C[C@@H]2O)(c2ccccc2)c2ccc(OC)cc2)cc1
- EC50 (Human alphaherpesvirus 3 [6]): 1.7 µM
- CC50 (HEL): 14.4 µM

SMILES: O=c1nc2c(cn1[C@H]1C[C@H](O)[C@@H](CO)O1)Oc1ccccc1N2
- CC50 (HEL): > 100 µM

SMILES: C#Cc1c(C(N)=O)ncn1[C@@H]1O[C@H](CO)[C@@H](O)[C@H]1O
- EC50 (SARS-CoV): > 40 µM
- CC50 [7]: > 40 µM

SMILES: NC(=O)c1cc([C@@H]2O[C@H](CO)[C@@H](O)[C@H]2O)n2nc(CF)nc(N)c12
- CC50 [8]: 45 µM
- EC50 (Human coronavirus OC43): 1.3 µM

SMILES: OC[C@@H]1O[C@H](n2cnc3cc(Br)c(Br)cc32)[C@@H](O)[C@H]1O
- EC50 (Human betaherpesvirus 5): 1.2 µM

SMILES: Nc1ncnc2c1c(C#Cc1cnc3ccccc3c1)cn2[C@@H]1O[C@H](CSCC[C@H](N)C(=O)O)[C@@H](O)[C@H]1O
- IC50 [9]: 0.003 µM

SMILES: C#CCn1c(=O)n(C(=O)c2ccccc2)c(=O)c2ccccc21
- EC50 (Human alphaherpesvirus 3 [10]): 5.4 µM
- CC50 (HMEC-1): 11.2 µM

SMILES: O[C@@H]1[C@H](O)[C@H](O)CO[C@H]1Cn1c(Br)nc2cc(Cl)c(Cl)cc21
- EC50 (Human betaherpesvirus 5): 1.4 µM

SMILES: Cc1ncnc2c1c(/C=C/c1ccccn1)cn2[C@@H]1O[C@H](CO)[C@@H](O)[C@@]1(C)F
- CC50 at 72 h [11]: > 100 µM
- EC50 (Influenza A virus [12]): 6.95 µM
- EC50 (Influenza A virus [13]): 5.88 µM

SMILES: O=c1c2ccccc2n(Cc2cn(CCCOCc3ccccc3)nn2)c(=O)n1Cc1ccc(F)cc1
- EC50 (Human alphaherpesvirus 3 [10]): 12.3 µM

SMILES: O=c1c2ccccc2n(Cc2cn(CCCOCc3ccccc3)nn2)c(=O)n1Cc1ccccc1
- EC50 (Human alphaherpesvirus 3 [10]): > 20 µM
